Reference: patent US12594282B2, “Use of small molecule compounds in the treatment of diseases mediated by lung epithelial cell injury and/or vascular endothelial cell injury” (Guangzhou Cellprotek Pharmaceutical Co., Ltd., priority 2020, dated 2026)

Key:
[1] = system: primary cerebellar granule neuron; test: Intracellular lactate assay in glutamate-stimulated primary cerebellar granule neurons; type: cell-based, mice; conditions: 10 μM, pre-incubation 20 mins; 200 μM glutamate for 15 mins
Description: The cells were obtained from SD P7-8 neonatal mice. The cerebellum was taken, and the meninges and blood vessels were removed using microtweezers; the isolated cerebellar tissue was transferred to another dish containing dissection solution. The tissue was cut into pieces as small as possible using a tissue scissor. Digestion: The tissue in pieces was added into 7 mL of 0.25% trypsin digestive solution with a pipet, and was digested at 37° C. for 15 mins; the bench surface was cleaned and the instruments were washed. The container was turned upside down several times every five minutes to bring the tissue into better contact with the digestive solution. End of digestion: After the digestion, it can be seen that the tissue was sticked together and suspended in the liquid due to cell disruption and release of DNA. The digestion was terminated by adding 3 mL of RNase-containing 10% FBS DMEM medium. […] The cells were counted with a hand-held cell counter, and the seeding density was 4.0-5.0×10^5 cells/mL. […]
Pretreatment: The number of cells used for the determination of intracellular lactate content was 1-2*10^6. […] Centrifugation was performed at 16,000 g for 5 mins at 4° C., 160 μL of supernatant was collected into a new EP tube, and the remaining supernatant was subjected to BCA protein quantification. […]

[2] = system: NR4A3 mRNA; test: NR4A3 mRNA under OGD-R, RAOEC (real-time fluorescent quantitative PCR); type: cell-based, rat; conditions: 10 μM given at restoration
Description: HUVEC cells were cultured in modified DMEM medium containing 10% fetal bovine serum. When the cells reached about 80% confluence, the cells were digested with 0.25% trypsin, and then pipetted evenly with modified DMEM containing 10% […]. The cell concentration was adjusted to 1×10^5 cells/mL, and the cells were seeded at 400 uL/well in a 24-well plate, and the experiment was carried out when the cells grew to about 70% confluence. RAOEC cells were cultured in high-glucose DMEM medium containing 10% fetal bovine serum, and the seeding conditions were the same as those of HUVEC. During the OGD-R injury treatment, the hypoxia workstation was set to have an oxygen concentration of 1% (1% O2, 5% CO2, 94% N2), a temperature of 37° C., and a humidity of 85%. A sugar-free DMEM medium was placed in the hypoxia workstation for pre-hypoxia for 3 hours. The medium in the culture plate was aspirated, and the plate was washed twice with preheated sugar-free DMEM medium, and 100 uL of sugar-free DMEM medium was added to each well. The culture plate was placed in the hypoxia workstation, and 300 uL of pre-hypoxic sugar-free DMEM medium was added to each well, and then the culture plate was placed in the hypoxia workstation for additional hypoxia for 4 hours. Restoration was then performed. […]

C[C@@]12CCCC1C1C[C@@H](O)[C@]3(O)C[C@@H](O)CC[C@]3(C)C1CC2 (stereo partly drawn) [YC-6, 5α-androst-3β,5,6β-triol]
glutamate-induced intracellular accumulation of lactate [1]: significantly inhibited the accumulation of lactate
transcription level of NR4A3 (relative mRNA expression) [2]: did not significantly up-regulate the transcription level of NR4A3
